This is an account of results in patent publication US20230218710A1, “METHOD OF TREATING CORONAVIRUS INFECTIONS” (priority 2020, published 2023).

Square brackets hold non-standard residues; d marks the D form. Peptide text beside a SMILES is read from it. * marks the point of attachment. CH3O(CH2CH2O)11CH2CH2CO = COCCOCCOCCOCCOCCOCCOCCOCCOCCOCCOCCOCCC(=O)*

Series [1] has as its target T1, Apelin Receptor (APJ) (Homo sapiens, UniProt P35414).
T1 construct: host or cells: CHO-K1 AGTRL1 Gi cells
T1 sequence (P35414 1-380): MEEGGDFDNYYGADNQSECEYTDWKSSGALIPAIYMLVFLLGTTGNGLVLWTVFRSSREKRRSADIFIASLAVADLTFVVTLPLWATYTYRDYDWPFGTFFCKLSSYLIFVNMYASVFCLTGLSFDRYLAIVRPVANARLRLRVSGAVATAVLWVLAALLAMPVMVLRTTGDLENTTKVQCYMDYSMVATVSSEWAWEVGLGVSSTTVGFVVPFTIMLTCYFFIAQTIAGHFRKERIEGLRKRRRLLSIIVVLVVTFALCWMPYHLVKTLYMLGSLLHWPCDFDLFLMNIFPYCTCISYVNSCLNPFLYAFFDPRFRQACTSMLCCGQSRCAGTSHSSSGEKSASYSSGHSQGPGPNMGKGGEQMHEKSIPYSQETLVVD
Briefly: Activation of Ras in cultured cells overexpressing APJ. The settings on record: 50 μM peptide, 1 min; 100 nM Pyr-Apelin-13 = positive control. In kind it is cell-based. How it is done: Peptides were initially prepared as 100× stocks in H2O. […] Following a 1 min incubation, the cells were placed on ice, the supernatant was removed, and washed twice with cold HBSS. The HBSS was removed and the cells were immediately lysed in 150 μl/well of lysis buffer included with Active Ras Detection kit (Cell Signaling Technology; Danvers, Mass.); lysis buffer was supplemented with 1 mM PMSF (Millipore-Sigma; Saint Louis, Mo.) and Halt Protease/Phosphatase Inhibitor Cocktail (Thermo-Fisher; Waltham, Mass.) prior to use. The wells were immediately scraped and lysates transferred to microfuge tubes. The samples were then placed on ice for 10 min. […] Visualization and quantification of Ras recovery (GTP-bound/active Ras) in samples were performed with Azure Biosystems C400 Imager and AzureSpot analysis software (Dublin, Calif.). […] Each data point represents the average of duplicate assays.

Series [2] in a line: in vitro. The following applies: human, pooled human plasma.
Protocol: The metabolic stability of the peptides can be assessed in vitro by incubation in plasma and determination of the amount of peptide remaining over time. Peptides (50 μM) were incubated in pooled plasma from mice, monkeys, and humans at 37° C. Samples were removed at intervals up to 3 hours and immediately analyzed for the concentration of intact peptide by LC/MS/MS. The percent of peptide remaining in plasma at each time point was calculated relative to the initial peak area.
The target of series [3] is T1, Apelin Receptor (APJ). In words: cell-based. The following applies: CHO-K1, 0.5 h, read-out: Percent of Pyr-Apelin-13 Control Activity. How it is done: Peptides were initially prepared as 30 mM stock in DMSO and diluted to 3 mM in H2O or directly as 3 mM stock in H2O; used at a final concentration of 10 μM (0-0.1% DMSO).
In series [4] the target is human APJ (Homo sapiens, UniProt P35414). Briefly: cell-based. The settings on record: CHO-K1, 1.5 h, read-out: Percent of Apelin-13 Control Activity. As to the method: The effect of the peptides on activation of Apelin Receptor (APJ) can be assessed using an assay to monitor β-Arrestin recruitment in cultured cells overexpressing APJ such as CHO-K1, derived from Chinese hamster ovary. β-Arrestin recruitment assays were performed by Eurofins-DiscoverX (Fremont, Calif.) using CHO-K1 AGTRL1 β-Arrestin cell line (co-expressing ProLink tagged human APJ and Enzyme Acceptor tagged β-Arrestin) and PathHunter detection kit. Peptides were initially prepared either as 10 mM stock in DMSO and used at a final concentration of 10 μM (0.1% DMSO). CHO-K1 AGTRL1 β-Arrestin cells were seed onto 384-well plates in standard medium. […] Following 90 min. incubation at 37° C., β-Arrestin recruitment in response to various treatments was quantified using a chemiluminescent complementation reporter assay to measure association of tagged human APJ (ProLink tag) and tagged β-Arrestin (Enzyme Acceptor tag).

Series [5] concerns the target T1, Apelin Receptor (APJ). In words: Phosphorylation of MEK1 in cultured cells overexpressing APJ. In kind it is cell-based. The following applies: 5 min, 100 nM Pyr-Apelin-13 = positive control, acetate salts. How it is done: Peptides were initially prepared as 100× stocks in H2O. […] Following a 5 min incubation, the supernatant was removed and the cells were placed on ice and washed twice with cold HBSS. The HBSS was removed and the cells were immediately lysed in 300 μl/well of 1× lysis buffer (CST 10× Lysis Buffer; Cell Signaling Technology; Danvers, Mass.); lysis buffer was supplemented with 1 mM PMSF (Millipore-Sigma; Saint Louis, Mo.) and Halt Protease/Phosphatase Inhibitor Cocktail (Thermo-Fisher; Waltham, Mass.) prior to use. The samples were then placed on ice for 10 min, the wells were scraped and lysates were centrifuged at 12,500 rpm for 10 min at 4° C., and p-MEK expression in each sample was measured using Phospho-MEK1 (Ser217/221) Sandwich ELISA kit according to manufacturer's instructions (Cell Signaling Technology; Danvers, Mass.). Absorbance was measured using a Cytation 3 plate reader at […] (BioTek; Winooski, Vt.). […] Each data point represents the average of duplicate assays.

The target of series [6] is T1, Apelin Receptor (APJ). Briefly: Phosphorylation of ERK1/2 in cultured cells overexpressing APJ. In kind it is cell-based. The following applies: 5 min, 100 nM Pyr-Apelin-13 = positive control, acetate salts. As to the method:
The effect of the peptides of the current invention on activation of Apelin Receptor (APJ)-mediated signaling can be assessed using an assay to monitor phospho-ERK/phospho-p44/42 MAPK (p-ERK1/2) levels in cultured cells overexpressing Apelin Receptor (APJ) such as CHO-K1, derived from Chinese hamster ovary. Peptides were initially prepared as 100× stocks in H2O. […] Following a 5 min incubation the supernatant was removed and the cells were placed on ice and washed twice with cold HBSS. The HBSS was removed and the cells were immediately lysed in 300 μl/well of 1× lysis buffer (CST 10× Lysis Buffer; Cell Signaling Technology; Danvers, Mass.); lysis buffer was supplemented with 1 mM PMSF (Millipore-Sigma; Saint Louis, Mo.) and Halt Protease/Phosphatase Inhibitor Cocktail (Thermo-Fisher; Waltham, Mass.) prior to use. The samples were then placed on ice for 10 min, wells were scraped and lysates transferred to microfuge tubes. The samples were centrifuged at 12,500 rpm for 10 min at 4° C. and p-ERK1/2 expression in each sample was measured using Phospho-p44/42 MAPK (Thr202/Tyr204) Sandwich ELISA kit according to manufacturer's instructions (Cell Signaling Technology; Danvers, Mass.). Absorbance was measured using a Cytation 3 plate reader at […] (BioTek; Winooski, Vt.). […] Each data point represents the average of duplicate assays.

human APJ, sequence (P32121 whole entry partner, one chain of several): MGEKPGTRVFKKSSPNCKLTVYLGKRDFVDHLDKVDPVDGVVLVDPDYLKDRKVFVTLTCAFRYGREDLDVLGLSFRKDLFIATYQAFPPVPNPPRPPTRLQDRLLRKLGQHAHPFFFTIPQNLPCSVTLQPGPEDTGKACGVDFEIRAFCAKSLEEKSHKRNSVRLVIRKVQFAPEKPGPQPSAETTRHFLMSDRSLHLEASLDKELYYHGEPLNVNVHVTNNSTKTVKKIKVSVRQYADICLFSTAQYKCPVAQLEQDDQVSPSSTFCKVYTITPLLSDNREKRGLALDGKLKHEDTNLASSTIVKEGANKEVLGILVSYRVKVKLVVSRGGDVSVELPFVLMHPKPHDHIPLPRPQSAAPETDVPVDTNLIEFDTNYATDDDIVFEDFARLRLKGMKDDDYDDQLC

As for “(PEG12)KRRLLGLVFQSLCG(dA) [SEQ ID NO: 37 HCl salt] (KRRLLGLVFQSLCGA; N-terminal PEG12, C-terminal D-Ala, HCl salt; (1)..(1) PEG12; (15)..(15) D-Ala)”, in series [1], the “GTP-Ras (% of Positive Control)” value is given as 33.2%.
Regarding `CSCC[C@H](NC(=O)[C@H](CCCNC(=N)N)NC(=O)[C@@H](N)CCCNC(=N)N)C(=O)N[C@@H](CCC(=O)O)C(=O)N[C@H](C(=O)N[C@@H](Cc1ccc(O)cc1)C(=O)N[C@@H](CCC(N)=O)C(=O)N[C@@H](CS)C(=O)N[C@@H](CC(C)C)C(=O)N[C@@H](CS)C(=O)NCC(=O)N[C@H](C)C(=O)O)C(C)C` [compound 31] (H-RRMEVYQCLCG[dA]-OH; N-terminus and C-terminus assumed), the share remaining – broadly, the share of the starting amount still present when the sample was taken – at 0.5 h, 50 μM in series [2] amounted to 100%. The Emax at 10 µM in series [3] was determined as 2%; in series [4], 0%.
`CSCC[C@H](NC(=O)CNC(=O)[C@H](CCSC)NC(=O)[C@H](CCSC)NC(=O)[C@H](CCCNC(=N)N)NC(=O)[C@@H](N)CCCNC(=N)N)C(=O)N[C@H](C(=O)N[C@@H](C)C(=O)N[C@@H](CCC(N)=O)C(=O)N[C@@H](CS)C(=O)N[C@@H](CC(C)C)C(=O)N[C@@H](CCC(=O)O)C(=O)NCC(=O)N[C@H](C)C(=O)O)C(C)C` [compound 30] (H-RRMMGMVAQCLEG[dA]-OH; N-terminus and C-terminus assumed) returned a share remaining at 0.5 h, 50 μM in series [2] of 14.9%. The figures for the Emax at 10 µM in series [3] and in series [4] were 31% and -1%, respectively.
The like results for `CSCC[C@H](NC(=O)CNC(=O)[C@H](CCSC)NC(=O)[C@H](CCSC)NC(=O)[C@H](CCCNC(=N)N)NC(=O)[C@@H](N)CCCNC(=N)N)C(=O)N[C@H](C(=O)N[C@@H](Cc1ccccc1)C(=O)N[C@@H](CCC(N)=O)C(=O)N[C@@H](CO)C(=O)N[C@@H](CC(C)C)C(=O)N[C@@H](CS)C(=O)NCC(=O)N[C@H](C)C(=O)O)C(C)C` [compound 15] were, in that order, 24.3%, 105% and 40%.
For `COCCOCCOCCOCCOCCOCCOCCOCCOCCOCCOCCOCCC(=O)N[C@@H](CCCCN)C(=O)N[C@@H](CCCNC(=N)N)C(=O)N[C@@H](CCCNC(=N)N)C(=O)N[C@@H](CCSC)C(=O)N[C@@H](CCSC)C(=O)NCC(=O)N[C@@H](CCSC)C(=O)N[C@H](C(=O)N[C@@H](Cc1ccccc1)C(=O)N[C@@H](CCC(N)=O)C(=O)N[C@@H](CS)C(=O)N[C@@H](CC(C)C)C(=O)N[C@@H](CS)C(=O)NCC(=O)N[C@H](C)C(=O)O)C(C)C` [compound 20], in that order: 75.3%, 37% and 1%.
Consider `CC[C@H](C)[C@H](NC(=O)CNC(=O)[C@@H](NC(=O)[C@@H](NC(=O)[C@H](CCCNC(=N)N)NC(=O)[C@H](CCCNC(=N)N)NC(=O)[C@H](CCCCN)NC(=O)CCOCCOCCOCCOCCOCCOCCOCCOCCOCCOCCOCCOC)[C@@H](C)CC)[C@@H](C)CC)C(=O)N[C@H](C(=O)N[C@@H](Cc1ccccc1)C(=O)N[C@@H](CCC(N)=O)C(=O)N[C@@H](CS)C(=O)N[C@@H](CC(C)C)C(=O)N[C@@H](CS)C(=O)NCC(=O)N[C@H](C)C(=O)O)C(C)C` [compound 42] ({CH3O(CH2CH2O)11CH2CH2CO}-KRRIIGIVFQCLCG[dA]-OH; N-terminus and C-terminus assumed), for which the Emax at 10 µM came to 33% in series [3] and 8% in series [4].
As for `CSCC[C@H](NC(=O)CNC(=O)[C@H](CCSC)NC(=O)[C@H](CCSC)NC(=O)[C@H](CCCNC(=N)N)NC(=O)[C@@H](N)CCCNC(=N)N)C(=O)N[C@H](C(=O)N[C@@H](C)C(=O)N[C@@H](CCC(N)=O)C(=O)N[C@@H](CS)C(=O)N[C@@H](CC(C)C)C(=O)N[C@@H](CS)C(=O)NCC(=O)N[C@H](C)C(=O)O)C(C)C` [compound 11], the share remaining at 0.5 h, 50 μM in series [2] was 97.9%. Also, the Emax at 10 µM in series [3] is 49%; in series [4] it was 0%.
On to `CSCC[C@H](NC(=O)CNC(=O)[C@H](CCSC)NC(=O)[C@H](CCSC)NC(=O)[C@H](CCCNC(=N)N)NC(=O)[C@@H](N)CCCNC(=N)N)C(=O)N[C@H](C(=O)N[C@@H](Cc1ccccc1)C(=O)N[C@@H](CCC(N)=O)C(=O)N[C@@H](CO)C(=O)N[C@@H](CC(C)C)C(=O)N[C@@H](CS)C(=O)NCC(=O)N[C@H](C)C(=O)O)C(C)C` [SEQ ID NO: 15], for which the entries for the “pMEK1 (% of Positive Control)” value in series [5] (2.0 μM peptide), in series [5] (10 μM peptide) and in series [5] (50 μM peptide) were 2.5%, 14.3% and 52.7%, respectively. The “pERK1/2 (% of Positive Control)” value in series [6] (0.4 μM peptide) turned out to be 1.9%; in series [6] (2.0 μM peptide) it was 15.4%; in series [6] (10 μM peptide), 44.4%; in series [6] (50 μM peptide) it was 69.7%.
As to `COCCOCCOCCOCCOCCOCCOCCOCCOCCOCCOCCOCCC(=O)N[C@@H](CCCCN)C(=O)N[C@@H](CCCNC(=N)N)C(=O)N[C@@H](CCCNC(=N)N)C(=O)N[C@@H](CC(C)C)C(=O)N[C@@H](CC(C)C)C(=O)NCC(=O)N[C@@H](CC(C)C)C(=O)N[C@H](C(=O)N[C@@H](Cc1ccccc1)C(=O)N[C@@H](CCC(N)=O)C(=O)N[C@@H](CO)C(=O)N[C@@H](CC(C)C)C(=O)N[C@@H](CS)C(=O)NCC(=O)N[C@H](C)C(=O)O)C(C)C` [compound 37], the Emax at 10 µM in series [3] is 53%; in series [4], 12%.
With `COCCOCCOCCOCCOCCOCCOCCOCCOCCOCCOCCOCCC(=O)NCCCC[C@H](NC(=O)[C@@H](C)NC(=O)CNC(=O)[C@H](CS)NC(=O)[C@H](CC(C)C)NC(=O)[C@H](CS)NC(=O)[C@H](CCC(N)=O)NC(=O)[C@H](Cc1ccccc1)NC(=O)[C@@H](NC(=O)[C@H](CCSC)NC(=O)CNC(=O)[C@H](CCSC)NC(=O)[C@H](CCSC)NC(=O)[C@H](CCCNC(=N)N)NC(=O)[C@@H](N)CCCNC(=N)N)C(C)C)C(=O)O` [compound 21], the amount remaining at 0.5 h, 50 μM in series [2] was found to be 29.5%. In addition, the Emax at 10 µM in series [3] was found to be 34%; in series [4] it was 1%.
